Assay results reported in publication PMC7382816 (BMC Pharmacology & Toxicology, 2020).
Like-named read-outs stand apart in the source and are kept apart here.

Test: Single-dose pharmacokinetics in healthy volunteers under fasting and fed (high-fat breakfast) conditions, plasma concentrations by HPLC-MS, non-compartmental analysis
Assay type: in vivo, human
Set-up: Ke: unit not given here
Source text: The bioequivalence clinical trials were phase I, randomized, open-label, crossover, single-centre, with two periods separated by a 7-day washout stage. Subjects were randomised to one of the two treatment sequences, RT or TR where R was the reference formulation and T was the test formulation. Each of the clinical trial was crossover for evaluation of a test formulation compared to a reference formulation either under fed or fasting conditions. […] The treatments were allocated in a balanced manner on every inclusion day (blocks of 4 subjects). Our study adheres to CONSORT guidelines. […] Sample processing, genotyping for CYP2C19 and drug quantification were performed according to Román et al. […] Pharmacokinetic parameters were estimated from the plasma concentration–time data by non-compartmental analysis (WinNonlin Professional, version 2.0., Pharsight Corporation, USA) as reported by Román et al. […] WinNonLin Professional software version 2.0 was used for the statistical analysis. Pharmacokinetic parameters were log-transformed, and AUC and Cmax were adjusted for dose and weight. The values of pharmacokinetic parameters were expressed as mean ± standard deviation.

[1] = Fast, men, single oral dose, mean ± SD
[2] = both sexes, human, plasma, oral, only CYP2C19*1/*1 subjects, Fast, men and women, mean ± SD
[3] = both sexes, human, plasma, oral, only CYP2C19*1/*1 subjects, Fed, men and women, mean ± SD
[4] = both sexes, human, plasma, po, Fast, all subjects, single oral dose, mean ± SD
[5] = both sexes, human, plasma, po, Fed (high-fat breakfast), all subjects, single oral dose, mean ± SD
[6] = female, human, plasma, oral, only CYP2C19*1/*1 subjects, Fast, women, mean ± SD
[7] = female, human, plasma, oral, only CYP2C19*1/*1 subjects, Fed, women, mean ± SD
[8] = female, human, plasma, po, Fast, women, single oral dose, mean ± SD
[9] = female, human, plasma, po, Fed, women, single oral dose, mean ± SD
[10] = male, human, plasma, oral, only CYP2C19*1/*1 subjects, Fast, men, mean ± SD
[11] = male, human, plasma, oral, only CYP2C19*1/*1 subjects, Fed, men, mean ± SD
[12] = male, human, plasma, po, Fast, men, single oral dose, mean ± SD
[13] = male, human, plasma, po, Fed, men, single oral dose, mean ± SD
[14] = only CYP2C19*1/*1 subjects, Fast, men, mean ± SD
[15] = only CYP2C19*1/*1 subjects, Fast, women, mean ± SD
[16] = only CYP2C19*1/*1 subjects, Fed, men and women, mean ± SD
[17] = only CYP2C19*1/*1 subjects, Fed, men, mean ± SD

## COc1ccc2[nH]c([S+]([O-])Cc3ncc(C)c(OC)c3C)nc2c1 (stereo not drawn) [Omeprazole, omeprazole]
Fast, all subjects, single oral dose, mean ± SD
  Ke: 0.76 ± 0.29
[1]
  Cmax: 858.8 ± 432.6 ng/mL
  Ke: 0.70 ± 0.29
Fast, women, single oral dose, mean ± SD
  Ke: 0.82 ± 0.29
Fed (high-fat breakfast), all subjects, single oral dose, mean ± SD
  Ke: 0.67 ± 0.32
Fed, men, single oral dose, mean ± SD
  Ke: 0.69 ± 0.35
Fed, women, single oral dose, mean ± SD
  Ke: 0.65 ± 0.30
[2]
  AUC(0-inf): 1710 ± 1300 ng·h/mL
  CL/F: 9.5 mL/min/kg
  Vd/F: 0.69 ± 0.38 L/kg
  half-life: 1 ± 0.4 h
Both sexes, human, plasma, oral, only CYP2C19*1/*1 subjects, Fast, men and women, mean ± SD, read-out: Cmax
  Cmax: 860 ± 395 ng/mL
Both sexes, human, plasma, oral, only CYP2C19*1/*1 subjects, Fast, men and women, mean ± SD, read-out: Tmax
  Tmax: 1.8 ± 0.6 h
[3]
  AUC(0-inf): 1520 ± 1290 ng·h/mL
  CL/F: 10.3 mL/min/kg
  Vd/F: 0.77 ± 0.43 L/kg
  half-life: 1 ± 0.4 h
Both sexes, human, plasma, oral, only CYP2C19*1/*1 subjects, Fed, men and women, mean ± SD, read-out: Cmax
  Cmax: 604 ± 363 ng/mL
Both sexes, human, plasma, oral, only CYP2C19*1/*1 subjects, Fed, men and women, mean ± SD, read-out: Tmax
  Tmax: 4.9 h
Both sexes, human, plasma, oral, under fasting conditions, range among subjects, read-out: Tmax range
  Tmax: 1 to 3.5 h
Both sexes, human, plasma, oral, under fed conditions, range among subjects, read-out: Tmax range
  Tmax: 1 to 17 h
[4]
  AUC(0-inf): 2190 ± 2010 ng·h/mL
  CL/F: 8.83 mL/min/kg
  Vd/F: 0.64 ± 0.34 L/kg
Both sexes, human, plasma, po, Fast, all subjects, single oral dose, mean ± SD, read-out: Cmax
  Cmax: 931 ± 435 ng/mL
Both sexes, human, plasma, po, Fast, all subjects, single oral dose, mean ± SD, read-out: Tmax
  Tmax: 2 ± 0.7 h
[5]
  AUC(0-inf): 1930 ± 1880 ng·h/mL
  CL/F: 10.7 mL/min/kg
  Vd/F: 1.02 ± 1.07 L/kg
Both sexes, human, plasma, po, Fed (high-fat breakfast), all subjects, single oral dose, mean ± SD, read-out: Cmax
  Cmax: 683 ± 394 ng/mL
Both sexes, human, plasma, po, Fed (high-fat breakfast), all subjects, single oral dose, mean ± SD, read-out: Tmax
  Tmax: 4.9 ± 1.1 h
Fed vs fasting, all subjects
  AUC lower under fed conditions: 12%
  Cmax lower under fed conditions: 27%
  Delay of mean Tmax (absorption) by food: about 3 h
  half-life higher under fed conditions: 15%
Fed vs fasting, only subjects with CYP2C19*1/*1
  Delay of Tmax by food: 3 h
[6]
  AUC(0-inf): 1980 ± 1220 ng·h/mL
  CL/F: 8.83 mL/min/kg
  Vd/F: 0.69 ± 0.46 L/kg
  half-life: 1 ± 0.3 h
[7]
  AUC(0-inf): 1710 ± 1250 ng·h/mL
  CL/F: 9.5 mL/min/kg
  Vd/F: 0.84 ± 0.54 L/kg
female, human, plasma, oral, only CYP2C19*1/*1 subjects, Fed, women, mean ± SD, read-out: Cmax
  Cmax: 640 ± 275 ng/mL
female, human, plasma, oral, only CYP2C19*1/*1 subjects, Fed, women, mean ± SD, read-out: Tmax
  Tmax: 5.4 ± 0.4 h
[8]
  AUC(0-inf): 2020 ± 1500 ng·h/mL
  CL/F: 9.33 mL/min/kg
  Vd/F: 0.63 ± 0.31 L/kg
  half-life: 1 ± 0.4 h
female, human, plasma, po, Fast, women, single oral dose, mean ± SD, read-out: Cmax
  Cmax: 999 ± 438 ng/mL
female, human, plasma, po, Fast, women, single oral dose, mean ± SD, read-out: Tmax
  Tmax: 1.9 ± 0.6 h
[9]
  AUC(0-inf): 1720 ± 1400 ng·h/mL
  CL/F: 12.2 mL/min/kg
  Vd/F: 1.3 ± 1.38 L/kg
female, human, plasma, po, Fed, women, single oral dose, mean ± SD, read-out: Cmax
  Cmax: 640 ± 640 ng/mL
female, human, plasma, po, Fed, women, single oral dose, mean ± SD, read-out: Tmax
  Tmax: 5.4 ± 1 h
[10]
  AUC(0-inf): 1470 ± 1400 ng·h/mL
  CL/F: 10.3 mL/min/kg
  Vd/F: 0.68 ± 0.46 L/kg
male, human, plasma, oral, only CYP2C19*1/*1 subjects, Fast, men, mean ± SD, read-out: Cmax
  Cmax: 654 ± 306 ng/mL
[11]
  AUC(0-inf): 1410 ± 1160 ng·h/mL
  CL/F: 10.5 mL/min/kg
  Vd/F: 0.73 ± 0.38 L/kg
  half-life: 1 ± 0.4 h
male, human, plasma, oral, only CYP2C19*1/*1 subjects, Fed, men, mean ± SD, read-out: Tmax
  Tmax: 4.3 ± 1 h
[12]
  AUC(0-inf): 2380 ± 2480 ng·h/mL
  CL/F: 8.33 mL/min/kg
  Vd/F: 0.65 ± 0.38 L/kg
male, human, plasma, po, Fast, men, single oral dose, mean ± SD, read-out: Tmax
  Tmax: 2.1 ± 0.7 h
[13]
  AUC(0-inf): 2140 ± 2280 ng·h/mL
  CL/F: 9.5 mL/min/kg
  Vd/F: 0.75 ± 0.52 L/kg
male, human, plasma, po, Fed, men, single oral dose, mean ± SD, read-out: Cmax
  Cmax: 725 ± 448 ng/mL
male, human, plasma, po, Fed, men, single oral dose, mean ± SD, read-out: Tmax
  Tmax: 4.5 ± 0.9 h
Only CYP2C19*1/*1 subjects, Fast, men and women, mean ± SD
  Ke: 0.81 ± 0.23
[14]
  Ke: 0.82 ± 0.25
  Tmax: 2.0 ± 0.7 h
[15]
  Cmax: 1094.3 ± 366.6 ng/mL
  Ke: 0.79 ± 0.23
[16]
  Ke: 0.80 ± 0.36
  Tmax: 4.7 ± 1.0 h
[17]
  Cmax: 582.8 ± 419.1 ng/mL
  Ke: 0.84 ± 0.39
Only CYP2C19*1/*1 subjects, Fed, women, mean ± SD
  Ke: 0.72 ± 0.32
